# Where “and” joins values, the source holds several entries; their conditions need not be identical. Equal values may be shown once. Entries after “also recorded” stand apart in the source; their conditions may differ. Where a name gives a salt, the structure may show the parent alone. Read-outs that look alike come from different tables or passages of the source.
# Columns and labels:
# [1] = Stability of DCHA+ salts 3 heated in different solvents (31P NMR); format: physicochemical; conditions: for degraded at 3.5 h: water, read-out: conversion to phosphate
# Procedure: Stability of DCHA^+ Salts 3 Heated in Different Solvents. 40 mg 3 (E or Z) was heated in 5 ml of alcohol mixture, H2 O or acetonitrile. Reaction progress was monitored by ^31 P NMR spectroscopy.
# [2] = Stability of C-esters of Troika acid (E-2) in water; format: physicochemical
# [3] = pH dependence of the stability of DCHA+ salts 3 in D2O (31P NMR); format: physicochemical; conditions: 22° C.; for stability in D2O: 24 h, pH 2-8; for remaining at 24 h / Z isomer formed from E-3 (% int, 31P NMR) / F, fragmentation product (HO)2P(O)OH from E-3 (% int) / H, hydrolysis product 4 from E-3 (% int) / E isomer formed from Z-3 (% int, 31P NMR) / F, fragmentation product (HO)2P(O)CN from Z-3 (% int) / H, hydrolysis product 4 from Z-3 (% int): t = 24 h
# Procedure: pH Dependence of the Stability of DCHA^+ Salts 3. These experiments were carried out in 5 mm glass NMR tubes in D2 O at 22° C., concentration of 3 0.1% (w/v).
# [4] = Alkaline hydrolysis of E-3 and Z-3 to salts 4; format: physicochemical; conditions: for time to complete hydrolysis: NaOH in D2O; for time of alkaline hydrolysis: aq. NaOH, 25° C., pH 13-14
# Procedure: In an additional aspect of the present invention, C-alkyl esters of 3 can be stable under physiological conditions but can be reactive under more vigorous conditions. The stability of the parent Troika acids in H2 O were analyzed. Alkaline hydrolysis by methods known by those skilled in the art of E-3 and Z-3 (preferably, aq. NaOH, at a temperature of 25° C., at pH 13-14) can give the corresponding sodium salts E-4 and Z-4, the Z ester reacting much more rapidly (1 h vs. 70 h for E-3). Both salts 4 can be quite stable at high pH, typically, at pH values greater than 10, and room temperature, but at about pH 6 facile stereospecific fragmentations can be observed. […] The transformation of anti α-keto acid oximes to nitriles in aqueous solution at 40-100°C. is well known to those skilled in the art, but the corresponding process giving a phosphononitrile from a phosphonate α-oxime, observed with Z-4, was unexpected. Furthermore, an additional unexpected result in accordance with the present invention, was the finding that simple removal of the carboxy alkyl group of E-3 can create a reagent (E-4) capable of phosphorylation under mild aqueous conditions.
# Synthesis of E4 & 5. 10 N NaOH ([…]) was added to E-3 (10 mg) in D2 O (0.4 ml) in an NMR tube, raising the pH to ~13. Hydrolysis was monitored by ^1 H and ^31 P NMR at room temperature. The reaction was complete in 3 d, giving a product identified by ^13 C and ^31 P NMR as E-4. ^13 C NMR (D2 O): δ (ppm) 161.8 (d, ^1 JPC =176 Hz, P--C=N), 175.4 (d, ^2 JPC =21 Hz, C=O); ^31 P NMR (D2 O, pH=13-14): δ (ppm) 2.8.
# Acidification of Z-4 & 6. An analogous procedure for E-4 was carried out with the Z-3 isomer. Hydrolysis was complete within 1 h, yielding Z-4. […] (D2 O, pH=13-14): δ (ppm) 161.1 (d, ^1 JPC =127 Hz, P--C=N), […], 171.9 (d, ^2 JPC =17 Hz, C=O); ^31 P NMR (D2 O, pH=13-14): δ (ppm), 2.0.
# [5] = for fragmentation product: about pH 6; for stability at high pH: pH greater than 10, room temperature
# [6] = format: physicochemical
# [7] = Photochemical activation (UV irradiation) of ONBCE-TA in Tris buffer; format: physicochemical
# Procedure: Photochemical Activation Example. 5 mg of o-Nitrobenzyl (E)-dihydroxyphosphinyl)(hydroxyimino)acetate (ONBCE-TA) (prepared analogously to PNHDA) dissolved in 0.5 ml of 100 mM Tris buffer (pH 6.9) was irradiated in a Rayonet apparatus for 17 hr at 39° C. Phosphoric acid (the product from phosphorylation of solvent water) was obtained, yield 11%. The phosphorylation was not noticed in the absence of UV irradiation.
# [8] = pH 10, 27° C.; known to those skilled in the art; cited from earlier work
# [9] = Exp 2, EtOH:i-PrOH 1:1, 79° C., 30 h
# [10] = Exp 3, EtOH:t-BuOH 1:1, 79° C., 28 h
# [11] = Exp 5, H2O (pH 6-7), 82-84° C., 4.0 h
# [12] = Exp 8, H2O (pH 6-7), 82-84° C., 5.7 h
smiles,measurement,setting,value
"COC(=O)/C(=N\O)P(=O)(O)O [E-2, methyl α-(hydroxyimino)phosphonoacetic acid]",thermal stability,"[1]; 1 d in refluxing AN, DCHA+ salt",decomposed to polyphosphates
same,stability in water,[2]; H2O at physiological pH,stable
same,stability in water,"[2]; neutral and acidic pH, room temperature",stable at both acidic and neutral pH; also recorded: stable in water at room temperature
"COC(=O)/C(=N\O)P(=O)(O)O [E-3, Dicyclohexylammonium E-Methyl (Hydroxyimino)phosphonoacetate]",stability on heating,"[1]; 5 h in 1:1 MeOH:i-PrOH, 72° C.",unchanged
same,Et phosphate and i-Pr phosphate formed,"[1]; 30 h in 1:1 EtOH:i-PrOH, 79° C.",84%
same,"Et-phosphate (yield, %)",[1]; [9],48.3%
same,"Z-isomer (yield, %)",[1]; [9],2.5%
same,"i-Pr-phosphate (yield, %)",[1]; [9],35.8%
same,"phosphate (yield, %)",[1]; [9],8.5%
same,s.m. (%),[1]; [9],4.9%
same,"Et-phosphate (yield, %)",[1]; [10],33.9%
same,"Z-isomer (yield, %)",[1]; [10],29.4%
same,"phosphate (yield, %)",[1]; [10],9.4%
same,s.m. (%),[1]; [10],10.4%
same,"t-Bu-phosphate (yield, %)",[1]; [10],16.9%
same,"phosphate (yield, %)","[1]; Exp 4, H2O (pH 4.0), 82-84° C., 3.5 h",100%
same,"phosphate (yield, %)",[1]; [11],87.7%
same,s.m. (%),[1]; [11],12.3%
same,"phosphate (yield, %)","[1]; Exp 6, MeCN, 81° C., 3.5 h",0.6%
same,"phosphononitrile (yield, %)","[1]; Exp 6, MeCN, 81° C., 3.5 h",2.1%
same,"polyphosphates (yield, %)","[1]; Exp 6, MeCN, 81° C., 3.5 h",80.9%
same,s.m. (%),"[1]; Exp 6, MeCN, 81° C., 3.5 h",16.4%
same,polyphosphate products,"[1]; refluxing acetonitrile, several hours",81%
same,degraded at 3.5 h,"[1]; H2O, pH 4.0, 3.5 h, 82-84° C.",100%
same,degraded at 3.5 h,"[1]; H2O, pH ~6.5, 3.5 h, 82-84° C.",88%
same,stability in D2O,[3],stable
same,"E isomer (% int, 31P NMR)","[3]; t = 0, pH 2.0, D2O",100%
same,"E isomer (% int, 31P NMR)","[3]; t = 0, pH 4.0, D2O",100%
same,"E isomer (% int, 31P NMR)","[3]; t = 0, pH 6.2, D2O",100%
same,"E isomer (% int, 31P NMR)","[3]; t = 0, pH 8.1, D2O",100%
same,"E isomer (% int, 31P NMR)","[3]; t = 0, pH 10.4, D2O",100%
same,"E isomer (% int, 31P NMR)","[3]; t = 0, pH 11.0, D2O",100%
same,remaining at 24 h,"[3]; pH 2.0, D2O, read-out: E isomer (% int, 31P NMR)",100%
same,remaining at 24 h,"[3]; pH 4.0, D2O, read-out: E isomer (% int, 31P NMR)",100%
same,"Z isomer formed from E-3 (% int, 31P NMR)","[3]; pH 6.2, D2O",8.9%
same,remaining at 24 h,"[3]; pH 6.2, D2O, read-out: E isomer (% int, 31P NMR)",91.1%
same,"Z isomer formed from E-3 (% int, 31P NMR)","[3]; pH 8.1, D2O",8.7%
same,remaining at 24 h,"[3]; pH 8.1, D2O, read-out: E isomer (% int, 31P NMR)",91.3%
same,"F, fragmentation product (HO)2P(O)OH from E-3 (% int)","[3]; pH 10.4, D2O",1.2%
same,"H, hydrolysis product 4 from E-3 (% int)","[3]; pH 10.4, D2O",6.9%
same,"Z isomer formed from E-3 (% int, 31P NMR)","[3]; pH 10.4, D2O",3.0%
same,remaining at 24 h,"[3]; pH 10.4, D2O, read-out: E isomer (% int, 31P NMR)",87.2%
same,"F, fragmentation product (HO)2P(O)OH from E-3 (% int)","[3]; pH 11.0, D2O",3.6%
same,"H, hydrolysis product 4 from E-3 (% int)","[3]; pH 11.0, D2O",18.4%
same,"Z isomer formed from E-3 (% int, 31P NMR)","[3]; pH 11.0, D2O",1.8%
same,remaining at 24 h,"[3]; pH 11.0, D2O, read-out: E isomer (% int, 31P NMR)",76.2%
same,time to complete hydrolysis,"[4]; pH ~13, room temperature",3 days
same,time of alkaline hydrolysis,[4],70 h
O=C(O)/C(=N\O)P(=O)(O)O [E-4],fragmentation product,[5],exclusively orthophosphoric acid
same,stability at high pH,[5],quite stable
same,half-life,"physchem; d2o, pH 5.7",< 10 min
same,half-life,"physchem; water, pH 6",< 10 min
"COP(=O)(O)/C(=N/O)C(=O)O [E-13, Bis-DCHA^+ Salt (E-13) of (E)-(Hydroxyimino)-(hydroxymethoxyphosphinyl)acetic Acid]","ethyl and t-butyl methyl phosphate, total",[6]; 1:1 EtOH-t-BuOH,24%
same,phosphorylation products,[6]; heated in acetonitrile or EtOH,16-19%
O=C(OCc1ccccc1[N+](=O)[O-])/C(=N\O)P(=O)(O)O [ONBCE-TA],phosphoric acid formed (yield),"[7]; UV, 17 hr, 39° C., 100 mM Tris pH 6.9",11%
same,phosphorylation without irradiation,[7]; absence of UV irradiation,not noticed
"COC(=O)/C(=N/O)P(=O)(O)O [Z-3, Bis(dicyclohexylammonium) Z-Methyl (Hydroxyimino)phosphonoacetate]",stability on heating,"[1]; 4 h in 1:1 EtOH:i-PrOH, 79° C.",stable
same,"E-isomer (yield, %)",[1]; [12],4.7% and 5%
same,"phosphate (yield, %)",[1]; [12],27.8% and 28%
same,"phosphononitrile (yield, %)",[1]; [12],13.4% and 13%
same,s.m. (%),[1]; [12],54.1%
same,conversion,"[1]; H2O, 5.7 h, 82-84° C.",46%
same,stability in D2O,[3],stable
same,"Z isomer (% int, 31P NMR)","[3]; t = 0, pH 2.0, D2O",100%
same,"Z isomer (% int, 31P NMR)","[3]; t = 0, pH 4.2, D2O",100%
same,"Z isomer (% int, 31P NMR)","[3]; t = 0, pH 6.7, D2O",100%
same,"Z isomer (% int, 31P NMR)","[3]; t = 0, pH 8.3, D2O",100%
same,"Z isomer (% int, 31P NMR)","[3]; t = 0, pH 10.4, D2O",100%
same,"Z isomer (% int, 31P NMR)","[3]; t = 0, pH 11.0, D2O",100%
same,remaining at 24 h,"[3]; pH 2.0, D2O, read-out: Z isomer (% int, 31P NMR)",100%
same,remaining at 24 h,"[3]; pH 4.2, D2O, read-out: Z isomer (% int, 31P NMR)",100%
same,"E isomer formed from Z-3 (% int, 31P NMR)","[3]; pH 6.7, D2O",5.0%
same,remaining at 24 h,"[3]; pH 6.7, D2O, read-out: Z isomer (% int, 31P NMR)",95%
same,"E isomer formed from Z-3 (% int, 31P NMR)","[3]; pH 8.3, D2O",7.4%
same,remaining at 24 h,"[3]; pH 8.3, D2O, read-out: Z isomer (% int, 31P NMR)",92.6%
same,"E isomer formed from Z-3 (% int, 31P NMR)","[3]; pH 10.4, D2O",8.5%
same,"F, fragmentation product (HO)2P(O)CN from Z-3 (% int)","[3]; pH 10.4, D2O",1.7%
same,"H, hydrolysis product 4 from Z-3 (% int)","[3]; pH 10.4, D2O",2.6%
same,remaining at 24 h,"[3]; pH 10.4, D2O, read-out: Z isomer (% int, 31P NMR)",87.2%
same,"F, fragmentation product (HO)2P(O)CN from Z-3 (% int)","[3]; pH 11.0, D2O",9.2%
same,"H, hydrolysis product 4 from Z-3 (% int)","[3]; pH 11.0, D2O",14.5%
same,remaining at 24 h,"[3]; pH 11.0, D2O, read-out: Z isomer (% int, 31P NMR)",76.3%
same,time to complete hydrolysis,[4]; room temperature,≤ 0.042 days
same,time of alkaline hydrolysis,[4],1 h
O=C(O)/C(=N/O)P(=O)(O)O [Z-4],fragmentation product,[5],cyanophosphonic acid
same,stability at high pH,[5],quite stable
same,half-life,"physchem; d2o, pH 6",~5 min
O=C(CP(=O)(O)O)Oc1ccc([N+](=O)[O-])cc1 [p-nitrophenyl phosphonoacetate],hydrolysis vs. p-nitrophenyl acetate (times slower),[8],250 ×

# From patent US5948931A (priority 1997, dated 1999)
